Source: US10143731B2, “Peptides and combination of peptides for use in immunotherapy against various cancers” (immatics biotechnologies GmbH, priority 2015, dated 2018)

How the values were obtained:
[1] = tested on: CD8+ T cells; test: In vitro T-cell priming assay (aAPCs loaded with peptide/MHC and anti-CD28, multimer staining readout); format: cell-based, human; settings: for Wells positive [%]: in vitro immunogenicity of HLA class I peptides; for Wells (in vitro immunogenicity of HLA class I peptides): CD8+ T cells of healthy donors, three stimulation cycles with peptide/MHC and anti-CD28 coated beads
Method: In an aspect, the peptides are pre-screened for immunogenicity before being included in the warehouse. By way of example, and not limitation, the immunogenicity of the peptides included in the warehouse is determined by a method comprising in vitro T-cell priming through repeated stimulations of CD8+ T cells from healthy donors with artificial antigen presenting cells loaded with peptide/MHC complexes and anti-CD28 antibody.
In order to obtain information regarding the immunogenicity of the TUMAPs of the present invention, the inventors performed investigations using an in vitro T-cell priming assay based on repeated stimulations of CD8+ T cells with artificial antigen presenting cells (aAPCs) loaded with peptide/MHC complexes and anti-CD28 antibody.
In order to perform in vitro stimulations by artificial antigen presenting cells loaded with peptide-MHC complex (pMHC) and anti-CD28 antibody, the inventors first isolated CD8+ T cells from fresh HLA-A*02 leukapheresis products via positive selection using CD8 microbeads (Miltenyi Biotec, Bergisch-Gladbach, Germany) of healthy donors obtained from the University clinics Mannheim, Germany, after informed consent.
PBMCs and isolated CD8+ lymphocytes were incubated in T-cell medium (TCM) until use consisting of RPMI-Glutamax (Invitrogen, Karlsruhe, Germany) supplemented with 10% heat inactivated human AB serum (PAN-Biotech, Aidenbach, Germany), 100 U/ml Penicillin/100 μg/ml Streptomycin (Cambrex, Cologne, Germany), 1 mM sodium pyruvate (CC Pro, Oberdorla, Germany), 20 μg/ml Gentamycin (Cambrex). 2.5 ng/ml IL7 (PromoCell, Heidelberg, Germany) and 10 U/ml IL-2 (Novartis Pharma, Nürnberg, Germany) were also added to the TCM at this step.
Generation of pMHC/anti-CD28 coated beads, T-cell stimulations and readout was performed in a highly defined in vitro system using four different pMHC molecules per stimulation condition and 8 different pMHC molecules per readout condition.
The purified co-stimulatory mouse IgG2a anti human CD28 Ab 9.3 (Jung et al., 1987) was chemically biotinylated using Sulfo-N-hydroxysuccinimidobiotin as recommended by the manufacturer (Perbio, Bonn, Germany). Beads used were 5.6 μm diameter streptavidin coated polystyrene particles (Bangs Laboratories, Illinois, USA).
pMHC used for positive and negative control stimulations were A*0201/MLA-001 (peptide […] (SEQ ID NO. 303) from modified Melan-A/MART-1) and A*0201/DDX5-001 ([…] from DDX5, SEQ ID NO. 304), respectively.
800.000 beads/200 μl were coated in 96-well plates in the presence of 4×12.5 ng different biotin-pMHC, washed and 600 ng biotin anti-CD28 were added subsequently in a volume of 200 μl. Stimulations were initiated in 96-well plates by co-incubating 1×10^6 CD8+ T cells with 2×10^5 washed coated beads in 200 μl TCM supplemented with 5 ng/ml IL-12 (PromoCell) for 3 days at 37° C. Half of the medium was then exchanged by fresh TCM supplemented with 80 U/ml IL-2 and incubating was continued for 4 days at 37° C. This stimulation cycle was performed for a total of three times. For the pMHC multimer readout using 8 different pMHC molecules per condition, a two-dimensional combinatorial coding approach was used as previously described (Andersen et al., 2012) with minor modifications encompassing coupling to 5 different fluorochromes. Finally, multimeric analyses were performed by staining the cells with Live/dead near IR dye (Invitrogen, Karlsruhe, Germany), CD8-FITC antibody clone SK1 (BD, Heidelberg, Germany) and fluorescent pMHC multimers. For analysis, a BD LSRII SORP cytometer equipped with appropriate lasers and filters was used. Peptide specific cells were calculated as percentage of total CD8+ cells. Evaluation of multimeric analysis was done using the FlowJo software (Tree Star, Oregon, USA). In vitro priming of specific multimer+CD8+ lymphocytes was detected by comparing to negative control stimulations.

[2] = tested on: HLA-A*24; test: MHC binding assay by UV-ligand exchange and beta2m ELISA, HLA-A*24; set-up: species or system human; settings: binding to HLA-A*24 ranged by peptide exchange yield (UV-ligand exchange, β2m ELISA)
Description: MHC Binding Assays Candidate peptides for T cell based therapies according to the present invention were further tested for their MHC binding capacity (affinity). The individual peptide-MHC complexes were produced by UV-ligand exchange, where a UV-sensitive peptide is cleaved upon UV-irradiation, and exchanged with the peptide of interest as analyzed. Only peptide candidates that can effectively bind and stabilize the peptide-receptive MHC molecules prevent dissociation of the MHC complexes. To determine the yield of the exchange reaction, an ELISA was performed based on the detection of the light chain (β2m) of stabilized MHC complexes. The assay was performed as generally described in Rodenko et al. (Rodenko et al., 2006).
96 well MAXISorp plates (NUNC) were coated over night with 2 ug/ml streptavidin in PBS at room temperature, washed 4× and blocked for 1 h at 37° C. in 2% BSA containing blocking buffer. Refolded HLA-A*02:01/MLA-001 monomers served as standards, covering the range of 15-500 ng/ml. Peptide-MHC monomers of the UV-exchange reaction were diluted 100 fold in blocking buffer. Samples were incubated for 1 h at 37° C., washed four times, incubated with 2 ug/ml HRP conjugated anti-β2m for 1 h at 37° C., washed again and detected with TMB solution that is stopped with […]. Absorption was measured at 450 nm. Candidate peptides that show a high exchange yield (preferably higher than 50%, most preferred higher than 75%) are generally preferred for a generation and production of antibodies or fragments thereof, and/or T cell receptors or fragments thereof, as they show sufficient avidity to the MHC molecules and prevent dissociation of the MHC complexes.

Substance | Peptide exchange [2] | other results
18 (ILLDLTDNRL; listed as Homo sapiens) [compound 18] | – | Wells positive [%] [1]: + (<20% = +)
216 (QYSSVFKSL; listed as Homo sapiens) [compound 216] | ++++ (> = 75% = ++++) | –
90 (FLQDLEQRL; listed as Homo sapiens) [compound 90] | – | Wells positive [%] [1]: + (<20% = +)
210 (IYTMIYRNL; listed as Homo sapiens) [compound 210] | ++++ (> = 75% = ++++) | –
230 (KLQNIMMLL; listed as Homo sapiens) [compound 230] | – | Wells positive [%] [1]: ++++ (> = 70% = ++++)
274 (AYLHSHALI; listed as Homo sapiens) [compound 274] | ++++ (> = 75% = ++++) | –
293 (FLVDGSWSI; listed as Homo sapiens) [compound 293] | – | Wells (in vitro immunogenicity of HLA class I peptides) [1]: + (<20% = +)
5 (GIVAHIQEV; listed as Homo sapiens) [compound 5] | – | Wells positive [%] [1]: + (<20% = +)
291 (KLDETGNSL; listed as Homo sapiens) [compound 291] | – | Wells (in vitro immunogenicity of HLA class I peptides) [1]: + (<20% = +)
217 (FFPPTRQMGLLF; listed as Homo sapiens) [compound 217] | ++++ (> = 75% = ++++) | –
141 (FLDKVLVAA; listed as Homo sapiens) [compound 141] | – | Wells positive [%] [1]: + (<20% = +)
211 (YYLEVGKTLI; listed as Homo sapiens) [compound 211] | ++++ (> = 75% = ++++) | –
195 (TYSVSFPMF; listed as Homo sapiens) [compound 195] | ++++ (> = 75% = ++++) | –
228 (KYTSWYVAL; listed as Homo sapiens) [compound 228] | ++++ (> = 75% = ++++) | –
207 (AYVVFVSTL; listed as Homo sapiens) [compound 207] | – | Wells positive [%] [1]: + (<20% = +)
179 (MYDSYWRQF; listed as Homo sapiens) [compound 179] | ++++ (> = 75% = ++++) | –
168 (KYQDILETI; listed as Homo sapiens) [compound 168] | ++++ (> = 75% = ++++) | –
267 (KYMVYPQTF; listed as Homo sapiens) [compound 267] | ++++ (> = 75% = ++++) | –
298 (RYLEGTSCI; listed as Homo sapiens) [compound 298] | – | Wells (in vitro immunogenicity of HLA class I peptides) [1]: + (<20% = +)
177 (VYPWLGALL; listed as Homo sapiens) [compound 177] | ++++ (> = 75% = ++++) | –
149 (ILNTHITEL; listed as Homo sapiens) [compound 149] | – | Wells positive [%] [1]: + (<20% = +)
227 (IFLDYEAGTLSF; listed as Homo sapiens) [compound 227] | ++++ (> = 75% = ++++) | –
292 (GMMTAILGV; listed as Homo sapiens) [compound 292] | – | Wells (in vitro immunogenicity of HLA class I peptides) [1]: + (<20% = +)
35 (FLLPFSTVYL; listed as Homo sapiens) [compound 35] | – | Wells positive [%] [1]: + (<20% = +)
285 (HYPPVQVLF; listed as Homo sapiens) [compound 285] | – | Wells positive [%] [1]: + (<20% = +)
268 (QYLGQIQHI; listed as Homo sapiens) [compound 268] | – | Wells positive [%] [1]: + (<20% = +)

Substance | Peptide exchange [2] | other results
193 (RFHPTPLLL; listed as Homo sapiens) [compound 193] | ++++ (> = 75% = ++++) | –
196 (LYIDRPLPYL; listed as Homo sapiens) [compound 196] | – | Wells positive [%] [1]: ++++ (> = 70% = ++++)
187 (TYLRDQHFL; listed as Homo sapiens) [compound 187] | ++++ (> = 75% = ++++) | –
181 (LYLDIINLF; listed as Homo sapiens) [compound 181] | ++++ (> = 75% = ++++) | –
289 (KYPVEWAKF; listed as Homo sapiens) [compound 289] | ++++ (> = 75% = ++++) | –
218 (YYKSTSSAF; listed as Homo sapiens) [compound 218] | – | Wells positive [%] [1]: + (<20% = +)
186 (IFPQFLYQF; listed as Homo sapiens) [compound 186] | ++++ (> = 75% = ++++) | –
184 (VFQNFPLLF; listed as Homo sapiens) [compound 184] | ++++ (> = 75% = ++++) | –
166 (YYVESGKLF; listed as Homo sapiens) [compound 166] | ++++ (> = 75% = ++++) | –
172 (TYTTVPRVAF; listed as Homo sapiens) [compound 172] | ++++ (> = 75% = ++++) | –
31 (TITETTVEV; listed as Homo sapiens) [compound 31] | – | Wells positive [%] [1]: + (<20% = +)
160 (VYTLDIPVL; listed as Homo sapiens) [compound 160] | ++++ (> = 75% = ++++) | –
278 (RYISDQLFTNF; listed as Homo sapiens) [compound 278] | ++++ (> = 75% = ++++) | –
269 (YFIDSTNLKTHF; listed as Homo sapiens) [compound 269] | – | Wells positive [%] [1]: + (<20% = +)
192 (SYALLTYMI; listed as Homo sapiens) [compound 192] | ++++ (> = 75% = ++++) | –
202 (VYWDSAGAAHF; listed as Homo sapiens) [compound 202] | ++++ (> = 75% = ++++) | –
271 (LYHDIFSRL; listed as Homo sapiens) [compound 271] | ++++ (> = 75% = ++++) | –
280 (RYPDNLKHLYL; listed as Homo sapiens) [compound 280] | ++++ (> = 75% = ++++) | –
277 (VYQGHTALL; listed as Homo sapiens) [compound 277] | ++++ (> = 75% = ++++) | –
173 (IYSWILDHF; listed as Homo sapiens) [compound 173] | ++++ (> = 75% = ++++) | –
282 (KFVDSTFYL; listed as Homo sapiens) [compound 282] | ++++ (> = 75% = ++++) | –
272 (QYLQDAYSF; listed as Homo sapiens) [compound 272] | ++++ (> = 75% = ++++) | –
175 (YYEVHKELF; listed as Homo sapiens) [compound 175] | ++++ (> = 75% = ++++) | –
276 (VYGFQWRHF; listed as Homo sapiens) [compound 276] | ++++ (> = 75% = ++++) | –
161 (IYLVSIPEL; listed as Homo sapiens) [compound 161] | ++++ (> = 75% = ++++) | –
